Results: ChEMBL document CHEMBL1795320, “Synthesis and antibacterial activity of novel 4″-O-benzimidazolyl clarithromycin derivatives” (2011)
≈ marks a conversion by molar mass, not a printed value.

Legend:
Assay type in all cases: functional
Staphylococcus aureus = assay: Antibacterial activity against erythromycin-susceptible Staphylococcus aureus ATCC 25923 by broth microdilution method
Streptococcus pneumoniae [1] = assay: Antibacterial activity against erythromycin-resistant Streptococcus pneumoniae B1 expressing erm gene by broth microdilution method
Streptococcus pneumoniae [2] = assay: Antibacterial activity against erythromycin-susceptible Streptococcus pneumoniae ATCC 49619 by broth microdilution method
Streptococcus pneumoniae [3] = assay: Antibacterial activity against erythromycin-resistant Streptococcus pneumoniae AB11 expressing erm and mef gene by broth microdilution method
Streptococcus pneumoniae [4] = assay: Antibacterial activity against erythromycin-resistant Streptococcus pneumoniae A22072 expressing mef gene by broth microdilution method
Streptococcus pneumoniae [5] = assay: Ratio of clarithromycin MIC to compound MIC for erythromycin-resistant Streptococcus pneumoniae A22072 expressing mef gene
Streptococcus pneumoniae [6] = assay: Ratio of erythromycin MIC to compound MIC for erythromycin-resistant Streptococcus pneumoniae A22072 expressing mef gene

| SMILES | MIC (Staphylococcus aureus) | MIC (Streptococcus pneumoniae [1]) | MIC (Streptococcus pneumoniae [2]) | MIC (Streptococcus pneumoniae [3]) | MIC (Streptococcus pneumoniae [4]) | Ratio (Streptococcus pneumoniae [5]) | Ratio (Streptococcus pneumoniae [6]) |
| --- | --- | --- | --- | --- | --- | --- | --- |
| CC[C@H]1OC(=O)[C@H](C)[C@@H](O[C@H]2C[C@@](C)(OC)[C@@H](OC(=O)NNC(=O)c3ccc4[nH]c(-c5cccc([N+](=O)[O-])c5)nc4c3)[C@H](C)O2)[C@H](C)[C@@H](O[C@@H]2O[C@H](C)C[C@H](N(C)C)[C@H]2O)[C@](C)(OC)C[C@@H](C)C(=O)[C@H](C)[C@@H](O)[C@]1(C)O | 0.5 µg/mL (≈ 0.467 µM) | 64 µg/mL (≈ 59.7 µM) | 0.25 µg/mL (≈ 0.233 µM) | 128 µg/mL (≈ 119 µM) | 1 µg/mL (≈ 0.934 µM) | – | – |
| CC[C@H]1OC(=O)[C@H](C)[C@@H](O[C@H]2C[C@@](C)(OC)[C@@H](OC(=O)NNC(=O)c3ccc4[nH]c(-c5ccc(C(F)(F)F)cc5)nc4c3)[C@H](C)O2)[C@H](C)[C@@H](O[C@@H]2O[C@H](C)C[C@H](N(C)C)[C@H]2O)[C@](C)(OC)C[C@@H](C)C(=O)[C@H](C)[C@@H](O)[C@]1(C)O | 0.5 µg/mL (≈ 0.457 µM) | 8 µg/mL (≈ 7.31 µM) | 0.25 µg/mL (≈ 0.228 µM) | 8 µg/mL (≈ 7.31 µM) | 0.06 µg/mL (≈ 0.0548 µM) | – | – |
| CC[C@H]1OC(=O)[C@H](C)[C@@H](O[C@H]2C[C@@](C)(OC)[C@@H](OC(=O)NNC(=O)c3ccc4[nH]c(-c5ccc(Br)cc5)nc4c3)[C@H](C)O2)[C@H](C)[C@@H](O[C@@H]2O[C@H](C)C[C@H](N(C)C)[C@H]2O)[C@](C)(OC)C[C@@H](C)C(=O)[C@H](C)[C@@H](O)[C@]1(C)O | 1 µg/mL (≈ 0.905 µM) | 16 µg/mL (≈ 14.5 µM) | 0.25 µg/mL (≈ 0.226 µM) | 16 µg/mL (≈ 14.5 µM) | 0.06 µg/mL (≈ 0.0543 µM) | – | – |
| CC[C@H]1OC(=O)[C@H](C)[C@@H](O[C@H]2C[C@@](C)(OC)[C@@H](OC(=O)NNC(=O)c3ccc4[nH]cnc4c3)[C@H](C)O2)[C@H](C)[C@@H](O[C@@H]2O[C@H](C)C[C@H](N(C)C)[C@H]2O)[C@](C)(OC)C[C@@H](C)C(=O)[C@H](C)[C@@H](O)[C@]1(C)O | 0.5 µg/mL (≈ 0.526 µM) | 32 µg/mL (≈ 33.7 µM) | 0.12 µg/mL (≈ 0.126 µM) | 32 µg/mL (≈ 33.7 µM) | 1 µg/mL (≈ 1.05 µM) | – | – |
| CC[C@H]1OC(=O)[C@H](C)[C@@H](O[C@H]2C[C@@](C)(OC)[C@@H](OC(=O)NNC(=O)c3ccc4[nH]c(C)nc4c3)[C@H](C)O2)[C@H](C)[C@@H](O[C@@H]2O[C@H](C)C[C@H](N(C)C)[C@H]2O)[C@](C)(OC)C[C@@H](C)C(=O)[C@H](C)[C@@H](O)[C@]1(C)O | 0.5 µg/mL (≈ 0.519 µM) | 8 µg/mL (≈ 8.3 µM) | 0.12 µg/mL (≈ 0.124 µM) | 64 µg/mL (≈ 66.4 µM) | 1 µg/mL (≈ 1.04 µM) | – | – |
| CC[C@H]1OC(=O)[C@H](C)[C@@H](O[C@H]2C[C@@](C)(OC)[C@@H](OC(=O)NNC(=O)c3ccc4[nH]c(C(F)(F)F)nc4c3)[C@H](C)O2)[C@H](C)[C@@H](O[C@@H]2O[C@H](C)C[C@H](N(C)C)[C@H]2O)[C@](C)(OC)C[C@@H](C)C(=O)[C@H](C)[C@@H](O)[C@]1(C)O | 0.25 µg/mL (≈ 0.246 µM) | 32 µg/mL (≈ 31.4 µM) | 0.12 µg/mL (≈ 0.118 µM) | 64 µg/mL (≈ 62.9 µM) | 0.12 µg/mL (≈ 0.118 µM) | – | – |
| CCc1nc2cc(C(=O)NNC(=O)O[C@H]3[C@H](C)O[C@@H](O[C@H]4[C@H](C)[C@@H](O[C@@H]5O[C@H](C)C[C@H](N(C)C)[C@H]5O)[C@](C)(OC)C[C@@H](C)C(=O)[C@H](C)[C@@H](O)[C@](C)(O)[C@@H](CC)OC(=O)[C@@H]4C)C[C@@]3(C)OC)ccc2[nH]1 | 0.5 µg/mL (≈ 0.511 µM) | 32 µg/mL (≈ 32.7 µM) | 0.25 µg/mL (≈ 0.256 µM) | 64 µg/mL (≈ 65.4 µM) | 0.12 µg/mL (≈ 0.123 µM) | – | – |
| CCCc1nc2cc(C(=O)NNC(=O)O[C@H]3[C@H](C)O[C@@H](O[C@H]4[C@H](C)[C@@H](O[C@@H]5O[C@H](C)C[C@H](N(C)C)[C@H]5O)[C@](C)(OC)C[C@@H](C)C(=O)[C@H](C)[C@@H](O)[C@](C)(O)[C@@H](CC)OC(=O)[C@@H]4C)C[C@@]3(C)OC)ccc2[nH]1 | 0.25 µg/mL (≈ 0.252 µM) | 64 µg/mL (≈ 64.5 µM) | 0.12 µg/mL (≈ 0.121 µM) | 64 µg/mL (≈ 64.5 µM) | 0.12 µg/mL (≈ 0.121 µM) | – | – |
| CC[C@H]1OC(=O)[C@H](C)[C@@H](O[C@H]2C[C@@](C)(OC)[C@@H](OC(=O)NNC(=O)c3ccc4[nH]c(C(C)C)nc4c3)[C@H](C)O2)[C@H](C)[C@@H](O[C@@H]2O[C@H](C)C[C@H](N(C)C)[C@H]2O)[C@](C)(OC)C[C@@H](C)C(=O)[C@H](C)[C@@H](O)[C@]1(C)O | 0.12 µg/mL (≈ 0.121 µM) | 16 µg/mL (≈ 16.1 µM) | 0.12 µg/mL (≈ 0.121 µM) | 64 µg/mL (≈ 64.5 µM) | 0.12 µg/mL (≈ 0.121 µM) | – | – |
| CC[C@H]1OC(=O)[C@H](C)[C@@H](O[C@H]2C[C@@](C)(OC)[C@@H](OC(=O)NNC(=O)c3ccc4[nH]c(-c5ccccc5)nc4c3)[C@H](C)O2)[C@H](C)[C@@H](O[C@@H]2O[C@H](C)C[C@H](N(C)C)[C@H]2O)[C@](C)(OC)C[C@@H](C)C(=O)[C@H](C)[C@@H](O)[C@]1(C)O | 0.25 µg/mL (≈ 0.244 µM) | 8 µg/mL (≈ 7.8 µM) | 0.03 µg/mL (≈ 0.0292 µM) | 16 µg/mL (≈ 15.6 µM) | 0.03 µg/mL (≈ 0.0292 µM) | 133 | 267 |
| CC[C@H]1OC(=O)[C@H](C)[C@@H](O[C@H]2C[C@@](C)(OC)[C@@H](OC(=O)NNC(=O)c3ccc4[nH]c(-c5cccc(OC)c5)nc4c3)[C@H](C)O2)[C@H](C)[C@@H](O[C@@H]2O[C@H](C)C[C@H](N(C)C)[C@H]2O)[C@](C)(OC)C[C@@H](C)C(=O)[C@H](C)[C@@H](O)[C@]1(C)O | 0.12 µg/mL (≈ 0.114 µM) | 16 µg/mL (≈ 15.1 µM) | 0.03 µg/mL (≈ 0.0284 µM) | 32 µg/mL (≈ 30.3 µM) | 0.03 µg/mL (≈ 0.0284 µM) | 133 | 267 |
| CC[C@H]1OC(=O)[C@H](C)[C@@H](O[C@H]2C[C@@](C)(OC)[C@@H](OC(=O)NNC(=O)c3ccc4[nH]c(-c5ccc(OC)cc5)nc4c3)[C@H](C)O2)[C@H](C)[C@@H](O[C@@H]2O[C@H](C)C[C@H](N(C)C)[C@H]2O)[C@](C)(OC)C[C@@H](C)C(=O)[C@H](C)[C@@H](O)[C@]1(C)O | 0.25 µg/mL (≈ 0.237 µM) | 4 µg/mL (≈ 3.79 µM) | 0.12 µg/mL (≈ 0.114 µM) | 16 µg/mL (≈ 15.1 µM) | 0.03 µg/mL (≈ 0.0284 µM) | 133 | 267 |
| CC[C@H]1OC(=O)[C@H](C)[C@@H](O[C@H]2C[C@@](C)(OC)[C@@H](OC(=O)NNC(=O)c3ccc4[nH]c(-c5cccc(Cl)c5O)nc4c3)[C@H](C)O2)[C@H](C)[C@@H](O[C@@H]2O[C@H](C)C[C@H](N(C)C)[C@H]2O)[C@](C)(OC)C[C@@H](C)C(=O)[C@H](C)[C@@H](O)[C@]1(C)O | 0.5 µg/mL (≈ 0.464 µM) | 16 µg/mL (≈ 14.9 µM) | 0.03 µg/mL (≈ 0.0279 µM) | 32 µg/mL (≈ 29.7 µM) | 0.25 µg/mL (≈ 0.232 µM) | – | – |
| CC[C@H]1OC(=O)[C@H](C)[C@@H](O[C@H]2C[C@@](C)(OC)[C@@H](O)[C@H](C)O2)[C@H](C)[C@@H](O[C@@H]2O[C@H](C)C[C@H](N(C)C)[C@H]2O)[C@](C)(O)C[C@@H](C)CN(C)[C@H](C)[C@@H](O)[C@]1(C)O [AZITHROMYCIN] | 0.12 µg/mL (≈ 0.16 µM) | 128 µg/mL (≈ 171 µM) | 0.12 µg/mL (≈ 0.16 µM) | 256 µg/mL (≈ 342 µM) | 4 µg/mL (≈ 5.34 µM) | – | – |
| CC[C@H]1OC(=O)[C@H](C)[C@@H](O[C@H]2C[C@@](C)(OC)[C@@H](O)[C@H](C)O2)[C@H](C)[C@@H](O[C@@H]2O[C@H](C)C[C@H](N(C)C)[C@H]2O)[C@](C)(OC)C[C@@H](C)C(=O)[C@H](C)[C@@H](O)[C@]1(C)O [CLARITHROMYCIN] | 0.12 µg/mL (≈ 0.16 µM) | 128 µg/mL (≈ 171 µM) | 0.12 µg/mL (≈ 0.16 µM) | 128 µg/mL (≈ 171 µM) | 4 µg/mL (≈ 5.35 µM) | – | – |
| CC[C@H]1OC(=O)[C@H](C)[C@@H](O[C@H]2C[C@@](C)(OC)[C@@H](O)[C@H](C)O2)[C@H](C)[C@@H](O[C@@H]2O[C@H](C)C[C@H](N(C)C)[C@H]2O)[C@](C)(O)C[C@@H](C)C(=O)[C@H](C)[C@@H](O)[C@]1(C)O [ERYTHROMYCIN] | 0.12 µg/mL (≈ 0.164 µM) | 128 µg/mL (≈ 174 µM) | 0.12 µg/mL (≈ 0.164 µM) | 256 µg/mL (≈ 349 µM) | 8 µg/mL (≈ 10.9 µM) | – | – |
